Values after ≈ are worked out from the molar mass of the structure shown.

In this assay the test system is Mycobacterium tuberculosis variant bovis BCG. Kind of assay: microbe, parasite or virus in culture. It counts as functional.
In the case of `CCc1nn2c(C3CCCNC3)ccnc2c1-c1ccc(OC)cc1` (stereo not given), the MIC90 came out at 1.5 µM (≈ 0.505 µg/mL).
With `FC(F)(F)c1ccc2c(N3CCCNCC3)ncc(-c3ccccc3)c2n1`, the MIC90 came to 4.8 µM (≈ 1.79 µg/mL).
With `Cc1cc(/C=C/c2cccc(C(=O)O)c2)cc(Cl)c1OC1CCN(C)C1` (stereo not given) the figure was 8 µM (≈ 2.97 µg/mL); with `CCCCOc1ccc(S(=O)(=O)NCCCn2nc(Cl)c(N3CCCNCC3)cc2=O)cc1`, 4.4 µM (≈ 2.19 µg/mL).
`O=C(NC1=NCCS1)c1sc2cc(F)ccc2c1Cl` had an MIC90 of 8.2 µM (≈ 2.58 µg/mL).
With `CCOc1ccc(C(=O)Nc2ccc3c(c2)C(C)N(C)CC3)cc1Br` (stereo not given), the MIC90 stood at 4 µM (≈ 1.61 µg/mL).
With `O=C(NCc1cc(Cl)cc(Cl)c1)c1c(C(F)(F)F)nc2ccccn12` the figure was 1.3 µM (≈ 0.505 µg/mL); with `O=C(NCc1ccccc1F)N1CCN(Cc2ccc(Br)s2)CC1`, 9.4 µM (≈ 3.88 µg/mL); with `O=C(Nc1nnc(-c2ccc(Cl)cc2)o1)c1ccc(Cl)cc1`, 2.8 µM (≈ 0.936 µg/mL).
With `COc1ccc(CCNC(=O)c2cc(-c3ccc(OC)c(OC)c3)on2)cc1OC` the figure was 4.2 µM (≈ 1.73 µg/mL).
With `CCCCNC(=O)N1CCN(Cc2cccc3ccccc23)CC1` the figure was 8.8 µM (≈ 2.86 µg/mL); with `c1ccc(-c2csc(Nc3nc4cc5c(cc4s3)OCO5)n2)nc1`, 1.5 µM (≈ 0.532 µg/mL); with `Cc1n[nH]c(C)c1S(=O)(=O)NCc1nc(NCCCc2ccccc2)c2ccccc2n1`, 5.9 µM (≈ 2.66 µg/mL).
`FC(F)(F)c1ccc2c(N3CCNCC3)ncc(-c3ccsc3)c2n1` gave an MIC90 of 9.4 µM (≈ 3.43 µg/mL).
Regarding `O=C(CSc1ccccc1)Nc1nc(-c2ccccn2)cs1`, the MIC90 worked out at 6.7 µM (≈ 2.19 µg/mL).
Molecule `N=C(Nc1nc(-c2ccccn2)cc2ccccc12)c1cccc(Cl)c1` showed an MIC90 of 0.6 µM (≈ 0.215 µg/mL).
The figure for `CCS(=O)(=O)c1cccc(C(=O)Nc2nc(-c3ccccn3)cs2)c1` is 5.2 µM (≈ 1.94 µg/mL); for `O=C(Nc1ccc(C(F)(F)F)cc1)NC1CCCCC1` it is 4.3 µM (≈ 1.23 µg/mL).
The figure for `O=C(CSc1ccc(Cl)cc1)NNC(=O)c1cccs1` is 4.8 µM (≈ 1.57 µg/mL); for `O=C(CSc1nnc(-c2ccccc2)o1)Nc1nc(-c2ccccn2)cs1` it is 6.6 µM (≈ 2.61 µg/mL); for `CC1CCCC(NC(=O)Nc2ccc3snnc3c2)C1C` (stereo not given) it is 3.1 µM (≈ 0.944 µg/mL).
With `COc1ccc2nc(C)cc(OCC(=O)Nc3ccccc3OC)c2c1` the figure was 1.4 µM (≈ 0.493 µg/mL); with `c1coc(-c2nnc(Sc3ccnc(N4CCN(c5ccncc5)CC4)n3)n2CCN2CCOCC2)c1`, 5.3 µM (≈ 2.75 µg/mL).
Molecule `O=C(Nc1ccccc1-c1nc(Cl)cs1)OCCC1CCCCN1` (stereo not given) yielded an MIC90 of 0.2 µM (≈ 0.0732 µg/mL).
On to `Cc1ccc2nc(Cl)c(CNCc3cccs3)cc2c1`, for which the MIC90 worked out at 7.2 µM (≈ 2.18 µg/mL).
The figure for `Cc1cc(C(=O)Nc2nc(-c3ccccn3)nc3ccsc23)no1` is 2.8 µM (≈ 0.945 µg/mL).
The figure for `Cc1n[nH]c(C)c1S(=O)(=O)Nc1ccc2c[nH]nc2c1` is 6.2 µM (≈ 1.81 µg/mL); for `O=C(/C=C/c1ccccc1)N1CCN(Cc2cccc(OCc3ccccc3)c2)CC1` it is 8.3 µM (≈ 3.42 µg/mL).
With `Cc1ccc(NC(=O)CCC(=O)NNC(=O)c2cccs2)cc1C` the figure was 8.3 µM (≈ 2.87 µg/mL).
`CCOC(=O)CC[C@H](NC(=O)c1ccc(S(=O)(=O)Nc2ccc3nc(N)[nH]c(=O)c3c2)cc1)C(=O)OCC` came in with an MIC90 of 2.4 µM (≈ 1.31 µg/mL).
The figure for `COc1cccc(-c2nc3c(N4CCCC4)cccc3n2CC2CCCN2)n1.O=C(O)C(F)(F)F` (stereo not given) is 5.8 µM; for `COc1ccc(C(=O)[C@H]2C[C@@H]2CN(Cc2ccccn2)Cc2ccccn2)cc1` it is 7.7 µM (≈ 2.98 µg/mL); for `CC(=O)NCCn1c(Sc2ccnc(N3CCN(c4ccncc4)CC3)n2)nnc1-c1ccccc1` it is 4 µM (≈ 2.01 µg/mL).
In turn, `O=C(NCCCn1nc(Cl)c(N2CCCNCC2)cc1=O)Nc1ccc(-c2ccccc2)cc1` came in with an MIC90 of 3.7 µM (≈ 1.78 µg/mL).
`O=C(CSCc1ccc(Cl)cc1)NNC(=O)c1ccncc1` came in with an MIC90 of 9.7 µM (≈ 3.26 µg/mL).
Regarding `Cc1nc2ccccn2c1C(=O)NCc1ccc(Cl)cc1`, the MIC90 stood at 2 µM (≈ 0.6 µg/mL).
The figure for `O=C(NNC(=O)c1cccs1)c1ccc(OCc2ccccc2)cc1` is 9.9 µM (≈ 3.49 µg/mL).
The figure for `COCCN1CCN(c2ncc(-c3ccccc3OCc3cc(C)on3)cn2)CC1` is 4.4 µM (≈ 1.8 µg/mL); for `Nc1cccnc1Nc1ccc(C(F)(F)F)cc1` it is 3.7 µM (≈ 0.937 µg/mL).
On to `Brc1ccc(-c2noc(C3CCCNC3)n2)cc1` (stereo not given), for which the MIC90 is 6.2 µM (≈ 1.91 µg/mL).
In the case of `CCCc1ccc(S(=O)(=O)Nc2cc(CN3CCN(CCC)CC3)ccc2C)cc1`, the MIC90 amounted to 9.9 µM (≈ 4.25 µg/mL).
The molecule `CS(=O)(=O)c1ccc(C(=O)Nc2nc(-c3ccccn3)cs2)cc1` displayed an MIC90 of 3.6 µM (≈ 1.29 µg/mL).
The figure for `Clc1ccc(-c2nnc3sc(Cc4cccs4)nn23)cc1` is 7.5 µM (≈ 2.5 µg/mL).
The figure for `CC(C)(C)c1ccc(C(=O)Nc2nnc(-c3ccco3)o2)cc1` is 4.3 µM (≈ 1.34 µg/mL); for `O=C(Cc1ccc(Cl)cc1)Nc1nc(-c2ccccn2)cs1` it is 4.3 µM (≈ 1.42 µg/mL); for `Cc1nc(-c2cccnc2)nc(N2CCCN(Cc3ccc(F)cc3)CC2)c1Cl` it is 5.5 µM (≈ 2.27 µg/mL).
With `O=C(NCc1ccccc1)N1CCN(Cc2ccc3c(c2)OCO3)CC1` the figure was 4.9 µM (≈ 1.73 µg/mL).
In turn, `O=C(Nc1nnc(-c2ccc3c(c2)CCCC3)o1)c1ccc(Cl)s1` displayed an MIC90 of 3.8 µM (≈ 1.37 µg/mL).
Turning to `COc1ccc(N(C(=O)CNc2ccccc2Nc2ccc(Cl)cc2)C(C)C)cc1`, the MIC90 came out at 2.6 µM (≈ 1.1 µg/mL).
The figure for `CC(=O)Nc1cc(C(=O)Nc2ccc(C3=NCCN3)cc2)ccc1C(=O)Nc1ccc(C2=NCCN2)cc1` is 1.6 µM (≈ 0.815 µg/mL).
With `CNc1nc(SCC(=O)N(C)Cc2ccc(Cl)s2)nc2ccccc12` the figure was 8.9 µM (≈ 3.5 µg/mL); with `CN(C)CCNCc1ccc(-c2cc(Cl)cc(Cl)c2)o1`, 2.7 µM (≈ 0.846 µg/mL).
With `O=C(Nc1ccc2c(c1)OCC(=O)N2Cc1ccccc1Cl)NC1CCCCC1` the figure was 5.7 µM (≈ 2.36 µg/mL); with `CCc1ccc([C@@H]2C[C@H](C(F)(F)F)n3ncc(C(=O)NCc4ccc(OC)cc4)c3N2)cc1`, 2.7 µM (≈ 1.24 µg/mL); with `CSc1ccc(-c2nnc(NC(=O)c3cc(Cl)sc3Cl)o2)cc1`, 9.4 µM (≈ 3.63 µg/mL).
Turning to `C=CCNCCS(=O)(=O)c1cccc(Nc2ccc(-c3cccc(F)c3)cn2)c1`, the MIC90 amounted to 3.1 µM (≈ 1.28 µg/mL).
With `COc1ccc(-n2ncc3c(N4CCNCC4)nc(C4CC4)nc32)cc1` the figure was 5.6 µM (≈ 1.96 µg/mL).
Turning to `O=C(c1ccccc1)N1CCN(c2ccccc2NC(=O)C(Cl)(Cl)Cl)CC1`, the MIC90 was 1 µM (≈ 0.427 µg/mL).
With `COc1ccc2cnnc(SCC(=O)NNC(=O)c3cccs3)c2c1OC`, the MIC90 was 3 µM (≈ 1.21 µg/mL).
The figure for `COc1cc(Cl)c(Cl)cc1C(=O)Nc1cccc2c1CCN(C)C2` is 4 µM (≈ 1.46 µg/mL); for `Cn1c(SCC(=O)Nc2sccc2C#N)nnc1-c1ccc(Cl)cc1` it is 2.4 µM (≈ 0.936 µg/mL).
The figure for `O=C(NC1CCCCC1)c1cc2cc(OC(F)(F)F)ccc2[nH]1` is 6.4 µM (≈ 2.09 µg/mL).
With `Cc1ccccc1CN1CCC(O)(c2ccc(Cl)c(C(F)(F)F)c2)CC1` the figure was 4.3 µM (≈ 1.65 µg/mL); with `c1ccc(-c2nnc(Sc3ccnc(N4CCN(c5ccncc5)CC4)n3)n2CCN2CCOCC2)cc1`, 4.2 µM (≈ 2.22 µg/mL); with `O=C(Nc1ccc(-c2nc3ccccc3o2)cc1)c1cccnc1`, 4.5 µM (≈ 1.42 µg/mL).
In the case of `COc1ccc(CNC(=O)c2cnn3c2NC(c2ccc(OC)cc2)CC3C(F)(F)F)cc1` (stereo not given), the MIC90 came out at 9.1 µM (≈ 4.19 µg/mL).
Molecule `O=C(Nc1nc(-c2ccccn2)cs1)c1ccc2c(c1)OCO2` showed an MIC90 of 3 µM (≈ 0.976 µg/mL).
With `COc1ccc(CCNC(=O)c2nc(-c3ccc(OC)c(OC)c3)no2)cc1OC` the figure was 1.5 µM (≈ 0.62 µg/mL); with `COc1cc(OC)cc(C(=O)Nc2nc(-c3ccccn3)cs2)c1`, 3.4 µM (≈ 1.16 µg/mL); with `COc1cccc(CNc2nc(C)cc(-c3cccc(CN(C)C)c3)n2)c1`, 7 µM (≈ 2.54 µg/mL).
`O=c1nc(Oc2ccccc2)c(F)c[nH]1` showed an MIC90 of 4.2 µM (≈ 0.866 µg/mL).
With `O=C(Nc1nnc(-c2ccc(Cl)s2)o1)c1ccc(S(=O)(=O)N2CCCCC2)cc1` the figure was 7.3 µM (≈ 3.31 µg/mL); with `O=C(Cc1ccc(F)cc1)Nc1nc(-c2ccccn2)cs1`, 8.9 µM (≈ 2.79 µg/mL).
Molecule `c1ccc(-c2nc(N3CCCNCC3)c3ccccc3n2)cc1` registered an MIC90 of 2.7 µM (≈ 0.822 µg/mL).
The figure for `Cc1ccc(Nc2cc(C)nn2-c2nc(C)cc(O)n2)cc1` is 0.5 µM (≈ 0.148 µg/mL); for `CCc1ccc(CN2CCC3(CC2)OCCc2sccc23)s1` it is 0.5 µM (≈ 0.167 µg/mL).
The figure for `C[C@@H](NCCc1nc(-c2cn(C)c3ccccc23)no1)C1CCCCC1.Cl` is 9.4 µM; for `Cc1ccc2nc(C(F)(F)F)c(C(=O)NCc3ccco3)n2c1` it is 4.9 µM (≈ 1.58 µg/mL).
The figure for `Cc1cccc(-c2nc(Nc3ccncn3)c3sccc3n2)n1` is 0.3 µM (≈ 0.0961 µg/mL); for `CCCCCNc1nc(N2CCCC2)c2c(c1C#N)CCN(C)C2` it is 1.6 µM (≈ 0.524 µg/mL); for `c1csc(Cc2nn3c(-c4n[nH]c5c4CCC5)nnc3s2)c1` it is 3.2 µM (≈ 1.05 µg/mL).
Take `c1ccc(-c2csc(CN3CCC4(CC3)OCCc3sccc34)c2)cc1`: the MIC90 came out at 2.7 µM (≈ 1.03 µg/mL).
In the case of `Cc1ccc2nc(C(F)(F)F)c(C(=O)NCc3ccc(C)o3)n2c1`, the MIC90 turned out to be 4.4 µM (≈ 1.48 µg/mL).
The figure for `Cc1cc(C)n(-c2nc(C)c(Br)c(N(C)CCO)n2)n1` is 4.7 µM (≈ 1.6 µg/mL); for `Clc1ccc(CCNc2cc(-c3ccccc3)nc3ncnn23)cc1` it is 4 µM (≈ 1.4 µg/mL); for `COc1ccc(CCNc2nccc(-c3cccc(OC4CCNCC4)c3)n2)cc1` it is 4.4 µM (≈ 1.78 µg/mL).
With `O=C(OCc1c(F)cccc1Cl)c1ccc(-n2ncc(Cl)c(Cl)c2=O)cc1`, the MIC90 is 3.7 µM (≈ 1.58 µg/mL).
The figure for `CC1=Nc2ccccc2CN1CC(O)c1cc(Br)cs1` (stereo not given) is 8.4 µM (≈ 2.95 µg/mL).
With `O=C(C=Cc1ccccc1)N1CCN(Cc2ccc3c(c2)OCO3)CC1`, the MIC90 was determined as 2.9 µM (≈ 1.02 µg/mL).
The figure for `O=C(c1cnn(C(=O)c2ccco2)c1)c1ccccc1O` is 2.5 µM (≈ 0.706 µg/mL).
`Cc1ccc(SCCNC(=O)c2c(-c3ccccc3)noc2C)cc1` had an MIC90 of 8.7 µM (≈ 3.07 µg/mL).
Take `CCn1c(-c2nonc2N)nc2c(-c3cccc(Cl)c3)ncc(OCCCNCCc3c[nH]cn3)c21`: the MIC90 turned out to be 4.3 µM (≈ 2.18 µg/mL).
With `Clc1ccc2c(N3CCNCC3)ccnc2c1` the figure was 6.5 µM (≈ 1.61 µg/mL).
`Cc1ccc(C2(c3ccc(C)cc3)NC(=O)N(CC(=O)N3CCC(Cc4ccccc4)CC3)C2=O)cc1` displayed an MIC90 of 6.2 µM (≈ 3.07 µg/mL).
The molecule `Cc1ccc(Cl)c2sc(N(CCN(C)C)C(=O)CS(=O)(=O)c3ccc(F)cc3)nc12` came in with an MIC90 of 6.4 µM (≈ 3.01 µg/mL).
With `CN1CCCN(c2ncnc3sc(-c4ccccc4)cc23)CC1` the figure was 7.4 µM (≈ 2.4 µg/mL).
Molecule `O=C(Nc1nc(-c2ccccn2)cs1)c1ccno1` came in with an MIC90 of 1.8 µM (≈ 0.49 µg/mL).
In turn, `Cc1ccc(-n2cc3c(-c4ccc(Cl)cc4)nnc(C)c3n2)cc1` showed an MIC90 of 5.7 µM (≈ 1.91 µg/mL).
With `N#Cc1nc(-c2cccs2)oc1S(=O)(=O)c1ccc(Br)cc1` the figure was 2.9 µM (≈ 1.15 µg/mL); with `Cc1ccc2sc(N(CCCn3ccnc3)C(=O)c3ccco3)nc2c1C`, 5.6 µM (≈ 2.13 µg/mL).

Values taken from ChEMBL document CHEMBL2095176, “GSK Tuberculosis Screening Data”.
